In patent US9681664B2, “Macrocyclic picolinamides as fungicides” (Dow Agrosciences LLC, priority 2012, dated 2017):
Where two headings read alike, the source gives them in different places.

Columns and labels:
[1] = system: Puccinia triticina; Synonym: Puccinia recondite f. sp. tritici; test: Wheat brown rust (PUCCRT) disease control on wheat seedlings; format: in vivo; conditions: Puccinia triticina, High volume application, 100 ppm
In short: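 Yuma wheat grown to first fully emerged leaf was inoculated with Puccinia triticina spore suspension either before or after fungicide treatment, held overnight at 22° C. and 100% RH in darkness, then kept at 24° C. Fungicide applied by booth sprayer to run-off (acetone/water, 110 ppm Triton X-100) or as EC by track spray.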

[2] = system: Mycosphaerella graminicola; Anamorph: Septoria tritici; test: Leaf blotch of wheat (SEPTTR) disease control on wheat seedlings; format: in vivo; conditions: Zymoseptoria tritici, High volume application, 100 ppm
In short: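 Protective or curative format: Septoria tritici inoculation either preceded or followed fungicide application to first-leaf Yuma wheat. Severity scored 0–100%; control expressed versus untreated.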

[3] = 24 h, 1 Day Protectant, read-out: PUCCRT 1DP disease control
[4] = 72 h, 3 Day Curative, read-out: PUCCRT 3DC disease control
[5] = 24 h, 1 Day Protectant, read-out: SEPTTR 1DP disease control
[6] = 72 h, 3 Day Curative, read-out: SEPTTR 3DC disease control

SMILES	pest or weed control at 100 ppm [1, 3]	pest or weed control at 100 ppm [1, 4]	pest or weed control at 100 ppm [2, 5]	pest or weed control at 100 ppm [2, 6]
COc1ccnc(C(=O)N[C@H]2CCC[C@H](OCC(C)C)[C@@H](OC(=O)C3CCCC3)[C@H](C)OC2=O)c1O [F149]	80 to 100%	80 to 100%	80 to 100%	0 to 80%
COc1ccnc(C(=O)N[C@H]2CCC[C@H](OCC(C)C)[C@@H](OC(=O)C3CCCC3)[C@H](C)OC2=O)c1OCOC(C)=O [F150]	80 to 100%	80 to 100%	80 to 100%	80 to 100%
COc1ccnc(C(=O)N[C@H]2CCC[C@H](OCC(C)C)[C@@H](OC(=O)C3CCCC3)[C@H](C)OC2=O)c1OC(C)=O [F151]	80 to 100%	80 to 100%	80 to 100%	80 to 100%
COCCC(=O)Oc1c(OC)ccnc1C(=O)N[C@H]1CCC[C@H](OCC(C)C)[C@@H](OC(=O)C2CCCC2)[C@H](C)OC1=O [F152]	80 to 100%	80 to 100%	80 to 100%	80 to 100%
CCCO[C@H]1CCC[C@H](NC(=O)c2nccc(OC)c2O)C(=O)O[C@@H](C)[C@@H]1OC1CCCC1 [F153]	80 to 100%	80 to 100%	80 to 100%	80 to 100%
COc1ccnc(C(=O)N[C@H]2CCC[C@H](OC(=O)C3CCCC3)[C@@H](OC3CCCC3)[C@H](C)OC2=O)c1O [F156]	80 to 100%	80 to 100%	80 to 100%	80 to 100%
COc1ccnc(C(=O)N[C@H]2CCC[C@H](OC(=O)C3CCCC3)[C@@H](OC3CCCC3)[C@H](C)OC2=O)c1OCOC(=O)C(C)C [F157]	80 to 100%	80 to 100%	80 to 100%	80 to 100%
COc1ccnc(C(=O)N[C@H]2CCC[C@H](OC(=O)C3CCCC3)[C@@H](OC3CCCC3)[C@H](C)OC2=O)c1OCOC(C)=O [F158]	80 to 100%	80 to 100%	80 to 100%	80 to 100%
COc1ccnc(C(=O)N[C@H]2CCC[C@H](OC(=O)C3CCCC3)[C@@H](OC3CCCC3)[C@H](C)OC2=O)c1OC(C)=O [F159]	80 to 100%	80 to 100%	80 to 100%	80 to 100%
COc1ccnc(C(=O)N[C@H]2CCC[C@H](Oc3ccc(F)cc3)[C@@H](OC3CCCC3)[C@H](C)OC2=O)c1O [F160]	80 to 100%	80 to 100%	80 to 100%	80 to 100%
COc1ccnc(C(=O)N[C@H]2CCC[C@H](Oc3ccc(F)cc3)[C@@H](OC3CCCC3)[C@H](C)OC2=O)c1OCOC(=O)C(C)C [F161]	80 to 100%	80 to 100%	80 to 100%	80 to 100%
COc1ccnc(C(=O)N[C@H]2CCC[C@H](Oc3ccc(F)cc3)[C@@H](OC3CCCC3)[C@H](C)OC2=O)c1OCOC(C)=O [F162]	80 to 100%	0 to 80%	80 to 100%	80 to 100%
COc1ccnc(C(=O)N[C@H]2CCC[C@H](OC3CCCC3)[C@@H](OCCCc3ccccc3)[C@H](C)OC2=O)c1O [F163]	80 to 100%	80 to 100%	80 to 100%	0 to 80%
CCCCCO[C@H]1[C@H](C)OC(=O)[C@@H](NC(=O)c2nccc(OC)c2O)CCC[C@@H]1OC1CCCC1 [F164]	80 to 100%	80 to 100%	80 to 100%	80 to 100%
COc1ccc(O[C@H]2CCC[C@H](NC(=O)c3nccc(OC)c3O)C(=O)O[C@@H](C)[C@@H]2OC2CCCC2)cc1 [F167]	80 to 100%	80 to 100%	80 to 100%	80 to 100%
